Results published in paper PMC10675445, “Enolase Inhibitors as Early Lead Therapeutics against Trypanosoma brucei” (Pathogens, 2023).
Like-named read-outs stand apart in the source and are kept apart here.

Columns and labels:
T. brucei ENO (TbENO) = T. brucei ENO (TbENO) (Trypanosoma brucei brucei, UniProt Q38BV6); test: Recombinant TbENO coupled enzyme assay; type: biochemical
Method: Recombinant ENO and ENO Assays—Recombinant TbENO was expressed and purified using an approach modified from the purification of another trypanosome glycolytic enzyme. Briefly, the full-length open reading frame was cloned from Trypanosoma brucei brucei (a 427 strain) genomic DNA into the bacterial expression vector pQE-30 (Qiagen, MD, USA). This plasmid was transformed into M15pREP cells and protein expression induced with 0.25 mM isopropyl-b-d-1-thiogalactopyranoside (IPTG) overnight at 37 °C. Protein was purified on Ni-NTA agarose (Qiagen) as described.
ENO assays were performed in triplicate using a coupled reaction to measure enzyme activity. In short, enzyme (~50 nM) in assay buffer (100 mM HEPES, pH 8.0, 3.3 mM MgSO4, 120 mM KCl, 1.75 mM ADP, 1 U of pyruvate kinase/lactate dehydrogenase, and 0.4 mM NADH) was added to black 96-well plates. Reactions were initiated by the addition of substrate (3.75 mM 2-PG) and the rate of reduction in fluorescence emission at A460 was measured after excitation at A360 to monitor NAD^+ production. Assays were scored on a Biotek Synergy H1 microplate reader and kinetic analyses were performed with Prism 9.0 (GraphPad Software, San Diego, CA, USA) using the Michaelis–Menten model. To assess the impact of different pH on enzyme activity, the HEPES […] in the standard buffer was replaced with Good’s buffers 2-morpholinoethanesulfonic acid (MES, pH 6.5), HEPES (pH 7.0 to pH 8.5), or sodium borate (pH 9.0). For assays involving inhibitors, compounds (in DMSO) were incubated with the enzyme in assay buffer (pH 8.0) for 15 min prior to initiation of the reaction. All assays were performed in triplicate with vehicle control (DMSO) included.

T. brucei BSF parasites = test: BSF viability assay (CellTiter Blue); type: cell-based, Trypanosoma brucei brucei
Method: (§1) Trypanosome growth, viability assays, and Western blotting—T. brucei brucei 90-13 BSF parasites were cultured in HMI-9 medium supplemented with 10% heat-inactivated FBS and 10% Serum Plus (Sigma-Aldrich, St. Louis, MO, USA) at 37 °C in 5% CO2, while T. brucei brucei PF 29-13 were cultured in SDM-79 supplemented with 10% heat-inactivated FBS [16]. For BSF viability assays, parasites (1 × 10^5/mL) were seeded into 384-well black polystyrene plates in the presence of a compound or equivalently diluted carrier. CellTiter Blue reagent (Promega, Madison, WI, USA) was added after two days of culture, the plates incubated an additional 1 h, and fluorescence emission at A585 measured after excitation at A546. For PF viability assays, 1 × 10^6 parasites in standard medium, or 5 × 10^6 parasites in glucose-free medium, were introduced into black 96-well plates in standard culture medium in the presence of a compound or carrier, with CellTiter Blue reagent added after 48 h of culture. Plates were incubated for 1 h and fluorescence emission scored as described for BSF. Fluorescence values were used to calculate percent cell growth inhibition (based on controls) for each concentration of compound tested. Averages of the triplicates were calculated and fit to dose-response curves for the determination of EC50 values, using Prism 9.0 (GraphPad Software, San Diego, CA, USA).

HsENO2 = system: HsENO2; set-up: method as in PMID 33230295; settings: cited from earlier work; for IC50: included for comparative purposes, source not given
ENO1-deficient tumors = system: ENO1-deficient tumors; set-up: method as in PMID 33230295; settings: rodent model; cited from earlier work
[1] = set-up: method as in PMID 33230295; settings: mammalian animal models, including non-human primates; cited from earlier work
T. brucei PF parasites = test: PF viability assay (CellTiter Blue); type: cell-based; settings: Trypanosoma brucei, 48 h
Method: as §1

BSF parasites [2] = test: Trypanosome ROS assay (flow cytometry); type: cell-based, Trypanosoma brucei; settings: 30 min, POMHEX 50 or 100 µM, H2O2 125 µM
Method: BSF parasites (5 × 10^6 cells) were pelleted (800 × g, 10 min) then resuspended in PBS supplemented with 0.1% glucose (PBSg). Samples were treated with either ROS stain (Total Reactive Oxygen Species (ROS) Assay Kit 520 nm, Invitrogen) or DMSO and then incubated at 37 °C in 5% CO2 for 60 min. Samples were then treated with 125 μM H2O2, 50 μM POMHEX, 100 μM POMHEX, or equal volume DMSO, incubated for 30 min, and analyzed on a CytoFLEX flow cytometer (Beckman Coulter). Events (10,000) were recorded and analyzed using FCSexpress software. Median fluorescence intensity (MFI) was calculated, and Welch’s t-tests were performed (ns: not statistically significant, * p < 0.05, ** p < 0.01, *** p < 0.001). Each experiment was performed with biological triplicates in technical triplicates.

BSF parasites [3] = test: Propidium iodide exclusion viability (flow cytometry); type: cell-based, Trypanosoma brucei; settings: 30 min
Method: To monitor apoptotic-like responses, 5 × 10^6 parasites were collected, resuspended in fresh media containing 125 μM H2O2, 5 μM POMHEX, 50 μM POMHEX, 100 μM POMHEX, or equal volume of DMSO, and incubated at 37 °C in 5% CO2 for 30 min. Cells were washed once in PBS, resuspended in binding buffer (10 mM HEPES/NaOH, pH 7.4, 140 mM NaCl, 2.5 mM CaCl2) with propidium iodide (Enzo Life Sciences) and incubated for 15 min, followed by cytometry. Each experiment was performed with technical triplicates of biological triplicates. Median fluorescence intensity (MFI) was calculated, and Welch’s t-tests were performed (ns: not statistically significant, * p < 0.05, ** p < 0.01, *** p < 0.001).

T. brucei aldolase = test: Aldolase western blot of BSF lysates; type: cell-based, Trypanosoma brucei; settings: POMHEX 6 µM, 2.5 h
Excerpt: (§2) The following supporting information can be downloaded at: https://www.mdpi.com/article/10.3390/pathogens12111290/s1, Figure S1: Multiple sequence alignment of TbENO, HsENO2, and NfENO. Amino acid sequences of TbENO (Tb927.10.2890), HsENO2 (ENOG, P09104), and NfENO (NfTY_054390) were aligned using Clustal Omega (EMBL-EBI). Similar amino acids are indicated with (:) and absolute conservation of residues by (*). Figure S2: BSF morphology rapidly changes upon POMHEX treatment. For imaging, BSF (427 strain parasites) parasites bearing the transgene pXS6 AldoPTSeYFP (left) or PF pXS2 AldoPTSeYFP (PF 29-13) (right) for constitutive glycosomal expression of eYFP were cultured for 2.5 hr in DMSO vehicle or POMHEX (at 6 µM, a concentration equivalent to 10-fold the EC50 value). Cells were then washed, fixed (4% paraformaldehyde), and imaged on a on Leica 8 DMi8 microscope. Scale bar = 10 µm. Figure S3: The levels of the glycosome-resident protein aldolase change in response to POMHEX treatment. […] Western blots were visualized on a Analytik Jena UVP ChemStudio imager with Visual works imaging software and bands were quantitated using ImageJ. Percent change in aldolase amount was scored after normalization to loading by quantification of a prominent Coomassie-stained band (likely VSG). […] Cell viability was scored by propidium iodide exclusion, followed by analysis of 10,000 cells in the PC5.5 channel.

[4] = system: BSF parasites (BSF pXS6-eYFP-PTS1); test: Imaging of BSF cell morphology; type: cell-based, Trypanosoma brucei; settings: 6 µM, 2.5 h
Excerpt: as §2

PF parasites (PF 29-13) = test: Imaging of PF cellular and glycosomal morphology; type: cell-based, Trypanosoma brucei; settings: 6 µM, 2.5 h
Excerpt: as §2

[5] = recombinant TbENO ~50 nM, pH 8.0, 15 min preincubation, 3.75 mM 2-PG, read-out: TbENO IC50
[6] = Trypanosoma brucei, 48 h, BSF, two days of culture, read-out: T. brucei BSF EC50
[7] = Trypanosoma brucei, 48 h, read-out: T. brucei BSF EC50, BSF, two days of culture

Sequence of T. brucei ENO (TbENO) (Q38BV6 entry or part of it): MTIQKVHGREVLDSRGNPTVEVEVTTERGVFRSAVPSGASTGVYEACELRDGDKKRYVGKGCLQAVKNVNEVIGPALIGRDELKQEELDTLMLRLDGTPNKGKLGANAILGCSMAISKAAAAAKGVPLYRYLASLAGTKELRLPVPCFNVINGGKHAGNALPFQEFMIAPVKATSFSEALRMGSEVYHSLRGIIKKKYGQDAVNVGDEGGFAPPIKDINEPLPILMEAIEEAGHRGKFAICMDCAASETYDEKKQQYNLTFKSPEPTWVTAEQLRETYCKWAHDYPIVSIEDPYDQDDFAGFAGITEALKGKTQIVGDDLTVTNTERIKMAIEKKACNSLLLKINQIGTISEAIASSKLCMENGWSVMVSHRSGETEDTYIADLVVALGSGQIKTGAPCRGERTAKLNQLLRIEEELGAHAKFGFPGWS

Row | Structure (SMILES) | IC50 (T. brucei ENO (TbENO); [5]) | EC50 (T. brucei BSF parasites; [6]) | IC50 (HsENO2) | IC50 (T. brucei ENO (TbENO)) | EC50 (T. brucei BSF parasites; [7]) | further results
1 | O=C1C(P(=O)(O)O)CCCCN1OCc1ccccc1 (stereo not drawn) [Benzyl-HEPTA] | > 10 µM | > 10 µM | > 10 µM | – | – | –
2 | O=C1C(P(=O)(O)O)CCN1OCc1ccccc1 (stereo not drawn) [Benzyl-deoxy-SF2312] | > 10 µM | > 10 µM | > 10 µM | – | – | activity against TbENO at 10 µM (T. brucei ENO (TbENO); at 10 µM): not active
3 | O=C1C(P(=O)(O)O)CCCN1OCc1ccccc1 (stereo not drawn) [BenzylHEX] | > 10 µM | > 10 µM | > 10 µM | – | – | activity against ENO2 (in words) (HsENO2): not active
4 | O=C1C(P(=O)(O)O)CCN1O (stereo not drawn) [Deoxy-SF2312, (1-hydroxy-2-oxopyrrolidin-3-yl) phosphonic acid] | – | – | 0.1 ± 0.04 µM | 0.6 ± 0.23 µM | > 10 µM | –
5 | O=C1C(P(=O)(O)O)CCCCN1O (stereo not drawn) [HEPTA, (1-hydroxy-2-oxoazepan-3-yl) phosphonic acid] | – | – | 5.8 ± 0.88 µM | > 10 µM | > 10 µM | activity against TbENO (in words) (T. brucei ENO (TbENO)): not active
6 | O=C1C(P(=O)(O)O)CCCN1O (stereo not drawn) [HEX, (1-hydroxy-2-oxopiperidin-3-yl) phosphonic acid] | – | – | 0.36 ± 0.04 µM | 2.1 ± 1.1 µM | 10 ± 1 µM | EC50 (T. brucei BSF parasites; Trypanosoma brucei, read-out: T. brucei BSF EC50, HEX with formaldehyde, with 2 molar equivalent formaldehyde): 10 ± 1.4 µM; EC50 (T. brucei BSF parasites; read-out: T. brucei BSF EC50, BSF, two days of culture): > 10 µM; efficacy against ENO1-deficient tumors (ENO1-deficient tumors): curative; tolerability [1]: extremely well-tolerated
7 | CC(C)(C)C(=O)OCOP(=O)(OCOC(=O)C(C)(C)C)C1CCCN(O)C1=O (stereo not drawn) [POMHEX] | 2.8 ± 0.64 µM | 0.61 ± 0.08 µM | > 10 µM | – | – | EC50 (T. brucei PF parasites; PF parasites cultured in glucose-free medium, read-out: PF EC50, glucose-free medium): 5 ± 0.14 µM; EC50 (T. brucei PF parasites; PF parasites cultured in standard (5 mM) glucose, read-out: PF EC50, standard glucose): 0.81 ± 0.07 µM; ROS levels compared to untreated parasites (BSF parasites [2]): significant reduction in ROS levels; cell death by PI exclusion, 50 µM (BSF parasites [3]; 50 µM): did not lead to increased cell death; cell death by PI exclusion, higher concentration (BSF parasites [3]; 100 µM): increased cell death; decrease of aldolase levels vs vehicle-treated cells (T. brucei aldolase): 28%; range of aldolase reduction in three other replicates (T. brucei aldolase): 28-55%; BSF cell morphology [4]: rapid change to overall cell shape; PF cellular and glycosomal morphology (PF parasites (PF 29-13)): remained largely unchanged
8 | CC(C)(C)C(=O)OCOP(=O)(OCOC(=O)C(C)(C)C)C1CC(O)N(O)C1=O (stereo not drawn) [POMSF] | – | – | – | – | – | EC50 (T. brucei BSF parasites; BSF, two days of culture, read-out: T. brucei BSF EC50): 0.45 ± 0.1 µM
9 | OO [hydrogen peroxide, reference compound] | – | – | – | – | – | ROS levels compared to untreated parasites (BSF parasites [2]): increase in reactive species
